According to patent US20230072683A1, “PYRIDO-PYRIMIDIN DERIVATIVES AND PHARMACEUTICAL COMPOSITION, FOR USE IN PREVENTING OR TREATING PI3 KINASE RELATED DISEASES, COMPRISING SAME AS ACTIVE INGREDIENT” (BORYUNG PHARMACEUTICAL CO., LTD, priority 2019, published 2023):
Like-named read-outs stand apart in the source and are kept apart here.

Experiments:
[1] = target: PI3K-δ (PI3K(p1108/p857) (h)) (Homo sapiens, UniProt O00329); test: Evaluation of inhibitory activity against PI3K-δ (HTRF kinase assay); type: biochemical; settings: for inhibition at 0.01 µM: compound concentration 0.01 μM, read-out: EXP_VALUE(% Inhibition) PI3K-δ 0.01 μM; for inhibition at 0.1 µM: read-out: EXP_VALUE(% Inhibition) PI3K-δ 0.1 μM
Chain of PI3K-δ (PI3K(p1108/p857) (h)) (O00329 whole entry, the tested form may be a part): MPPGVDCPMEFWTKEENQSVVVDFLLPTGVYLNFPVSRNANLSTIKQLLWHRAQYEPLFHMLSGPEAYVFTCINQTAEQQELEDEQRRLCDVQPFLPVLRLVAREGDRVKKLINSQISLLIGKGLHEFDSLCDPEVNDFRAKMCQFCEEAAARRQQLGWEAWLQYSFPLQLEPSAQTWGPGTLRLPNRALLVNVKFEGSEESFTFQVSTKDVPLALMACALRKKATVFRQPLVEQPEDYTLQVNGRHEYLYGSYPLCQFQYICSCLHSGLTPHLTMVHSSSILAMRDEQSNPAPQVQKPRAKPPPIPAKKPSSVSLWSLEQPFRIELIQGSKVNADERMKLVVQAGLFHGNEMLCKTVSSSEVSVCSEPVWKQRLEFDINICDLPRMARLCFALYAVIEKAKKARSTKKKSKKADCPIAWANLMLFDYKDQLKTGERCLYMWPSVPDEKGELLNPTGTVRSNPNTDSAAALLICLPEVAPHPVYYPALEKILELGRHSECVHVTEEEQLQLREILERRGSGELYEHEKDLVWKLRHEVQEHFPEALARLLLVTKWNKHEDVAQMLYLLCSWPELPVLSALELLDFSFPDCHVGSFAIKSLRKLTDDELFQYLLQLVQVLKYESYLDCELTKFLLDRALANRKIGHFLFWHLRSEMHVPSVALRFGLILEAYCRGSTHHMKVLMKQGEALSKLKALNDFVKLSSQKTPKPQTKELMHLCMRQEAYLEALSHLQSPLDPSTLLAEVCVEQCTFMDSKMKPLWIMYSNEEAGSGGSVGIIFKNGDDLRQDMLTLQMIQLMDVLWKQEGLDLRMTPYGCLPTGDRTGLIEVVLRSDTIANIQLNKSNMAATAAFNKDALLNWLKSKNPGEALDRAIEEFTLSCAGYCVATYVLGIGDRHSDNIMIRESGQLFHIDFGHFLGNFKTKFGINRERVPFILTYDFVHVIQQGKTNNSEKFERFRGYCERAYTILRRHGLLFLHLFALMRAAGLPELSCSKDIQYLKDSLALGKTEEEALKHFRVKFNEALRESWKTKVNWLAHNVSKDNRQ
Chain of PI3K-δ (PI3K(p1108/p857) (h)) (P27986 whole entry partner, the tested form may be a part): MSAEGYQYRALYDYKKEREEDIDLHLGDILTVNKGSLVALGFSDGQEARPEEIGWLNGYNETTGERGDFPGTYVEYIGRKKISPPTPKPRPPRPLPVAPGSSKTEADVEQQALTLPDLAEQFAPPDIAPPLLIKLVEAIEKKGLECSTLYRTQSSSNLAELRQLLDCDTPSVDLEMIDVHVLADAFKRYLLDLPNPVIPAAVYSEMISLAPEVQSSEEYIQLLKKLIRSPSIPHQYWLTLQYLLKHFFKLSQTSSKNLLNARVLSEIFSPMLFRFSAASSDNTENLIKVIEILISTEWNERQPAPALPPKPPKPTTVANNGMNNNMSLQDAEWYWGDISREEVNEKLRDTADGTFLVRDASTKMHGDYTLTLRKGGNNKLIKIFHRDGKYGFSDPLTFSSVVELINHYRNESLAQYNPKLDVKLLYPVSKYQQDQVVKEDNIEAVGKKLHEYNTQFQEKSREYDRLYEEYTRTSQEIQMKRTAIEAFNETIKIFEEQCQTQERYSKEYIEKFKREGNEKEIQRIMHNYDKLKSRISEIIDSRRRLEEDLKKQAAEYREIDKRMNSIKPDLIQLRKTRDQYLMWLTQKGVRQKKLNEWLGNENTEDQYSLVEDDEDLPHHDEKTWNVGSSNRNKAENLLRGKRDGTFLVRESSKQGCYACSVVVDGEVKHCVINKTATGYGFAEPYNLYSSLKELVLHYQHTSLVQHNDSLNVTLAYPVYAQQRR
How it was run: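 HTRF read-out (665/620 nm ratio ×10000) used Eu-labelled anti-GST, GST-tagged GRP1 PH domain and streptavidin-allophycocyanin after EDTA/PIP3 stop.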

DNA-PK(h) = DNA-PK(h) (Homo sapiens, UniProt P78527); test: Evaluation of inhibitory activity against DNA-PK (HTRF kinase assay, GST-cMyc-p53 substrate); type: biochemical; settings: for inhibition at 0.01 µM: compound concentration 0.01 μM, read-out: EXP_VALUE(% Inhibition) DNA-PK(h) 0.01 μM; for inhibition at 0.1 µM: read-out: EXP_VALUE(% Inhibition) DNA-PK(h) 0.1 μM
How it was run: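 Human DNA-PK with 50 μM GST-cMyc-p53 substrate; reaction started with Mg/ATP, run 30 min at room temperature, stopped with EDTA. Phospho-Ser15 p53 detected by HTRF (Eu anti-phospho-Ser15, d2 anti-GST), signal = 10000×(Em 665/Em 620).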

Row | Compound | inhibition at 0.01 µM [1] [%] | inhibition at 0.01 µM (DNA-PK(h)) [%] | inhibition at 0.1 µM ([1]; compound concentration 0.1 μM) [%] | inhibition at 0.1 µM (DNA-PK(h); compound concentration 0.1 μM) [%] | inhibition at 0.1 µM ([1]; compound at 0.1 μM) [%] | inhibition at 0.1 µM (DNA-PK(h); compound at 0.1 μM) [%]
1 | CC(C)S(=O)(=O)c1ccc(-c2cccc3c(Cl)c([C@H](C)Nc4ncnc5[nH]ccc(=O)c45)n(-c4ccccc4)c(=O)c23)cc1 [Example 209, (S)-4-((1-(4-chloro-8-(4-(isopropylsulfonyl)phenyl)-1-oxo-2-phenyl-1,2-dihydroisoquinolin-3-yl)ethyl)amino)pyrido[2,3-d]pyrimidin-5(8H)-one] | 67 | 77 | – | – | – | –
2 | Cc1cc(-c2cccc3c(Cl)c([C@H](C)Nc4ncnc5[nH]ccc(=O)c45)n(-c4ccccc4)c(=O)c23)ccc1F [Example 128, (S)-4-((1-(4-chloro-8-(4-fluoro-3-methylphenyl)-1-oxo-2-phenyl-1,2-dihydroisoquinolin-3-yl)ethyl)amino)pyrido[2,3-d]pyrimidin-5(8H)-one] | 101 | 59 | 105 | 97 | – | –
3 | C[C@H](Nc1ncnc2[nH]ccc(=O)c12)c1c(Cl)c2cccc(-c3ccc(C(F)(F)F)nc3)c2c(=O)n1-c1ccccc1 [Example 181, (S)-4-((1-(4-chloro-1-oxo-2-phenyl-8-(6-(trifluoromethyl)pyridin-3-yl)-1,2-dihydroisoquinolin-3-yl)ethyl)amino)pyrido[2,3-d]pyrimidin-5(8H)-one] | 101 | 61 | – | – | – | –
4 | COc1cnc(-n2ccc(=O)c3c(N[C@@H](C)c4c(Cl)c5ccccc5c(=O)n4-c4ccccc4)ncnc32)nc1 [Example 43, (S)-4-((1-(4-chloro-1-oxo-2-phenyl-1,2-dihydroisoquinolin-3-yl)ethyl)amino)-8-(5-methoxypyrimidin-2-yl)pyrido[2,3-d]pyrimidin-5(8H)-one] | 9 | 3 | – | – | – | –
5 | C[C@H](Nc1ncnc2[nH]ccc(=O)c12)c1c(Cl)c2cccc(C(=O)NC(C)(C)CO)c2c(=O)n1-c1ccccc1 [Example 284, (S)-4-chloro-N-(1-hydroxy-2-methylpropan-2-yl)-1-oxo-3-(1-((5-oxo-5,8-dihydropyrido[2,3-d]pyrimidin-4-yl)amino)ethyl)-2-phenyl-1,2-dihydroisoquinoline-8-carboxamide] | 25 | 10 | – | – | – | –
6 | COc1ncc(-c2cccc3c(Cl)c([C@H](C)Nc4ncnc5[nH]ccc(=O)c45)n(-c4ccccc4)c(=O)c23)cc1C [Example 197, (S)-4-((1-(4-chloro-8-(6-methoxy-5-methylpyridin-3-yl)-1-oxo-2-phenyl-1,2-dihydroisoquinolin-3-yl)ethyl)amino)pyrido[2,3-d]pyrimidin-5(8H)-one] | 91 | 61 | – | – | – | –
7 | C[C@H](Nc1ncnc2[nH]ccc(=O)c12)c1c(Cl)c2cccc(-c3ccc4ncccc4c3)c2c(=O)n1-c1ccccc1 [Example 121, (S)-4-((1-(4-chloro-1-oxo-2-phenyl-8-(quinolin-6-yl)-1,2-dihydroisoquinolin-3-yl)ethyl)amino)pyrido[2,3-d]pyrimidin-5(8H)-one] | 84 | 76 | 95 | 98 | – | –
8 | C[C@H](Nc1ncnc2[nH]ccc(=O)c12)c1c(Cl)c2cccc(-c3cnc(S(C)(=N)=O)nc3)c2c(=O)n1-c1ccccc1 (stereo partly drawn) [Example 407, 4-(((1S)-1-(4-chloro-8-(2-(S-methylsulfonimidoyl)pyrimidin-5-yl)-1-oxo-2-phenyl-1,2-dihydroisoquinolin-3-yl)ethyl)amino)pyrido[2,3-d]pyrimidin-5(8H)-one] | – | – | – | – | 67 | 70
9 | C[C@H](Nc1ncnc2[nH]ccc(=O)c12)c1c(Cl)c2cccc(-c3ccc(C(=O)N(C)C)cc3)c2c(=O)n1-c1ccccc1 [Example 139, (S)-4-(4-chloro-1-oxo-3-(1-((5-oxo-5,8-dihydropyrido[2,3-d]pyrimidin-4-yl)amino)ethyl)-2-phenyl-1,2-dihydroisoquinolin-8-yl)-N, N-dimethylbenzamide] | 51 | 74 | 94 | 96 | – | –
10 | C[C@H](Nc1ncnc2[nH]ccc(=O)c12)c1c(Cl)c2cccc(-c3ccc4ncn(C)c4c3)c2c(=O)n1-c1ccccc1 [Example 111, (S)-4-((1-(4-chloro-8-(1-methyl-1H-benzo[d]imidazol-6-yl)-1-oxo-2-phenyl-1,2-dihydroisoquinolin-3-yl)ethyl)amino)pyrido[2,3-d]pyrimidin-5(8H)-one] | 80 | 87 | 96 | 98 | – | –

The remaining lines, values ahead:

Row | inhibition at 0.01 µM [1] [%] | inhibition at 0.01 µM (DNA-PK(h)) [%] | inhibition at 0.1 µM ([1]; compound concentration 0.1 μM) [%] | inhibition at 0.1 µM (DNA-PK(h); compound concentration 0.1 μM) [%] | inhibition at 0.1 µM ([1]; compound at 0.1 μM) [%] | inhibition at 0.1 µM (DNA-PK(h); compound at 0.1 μM) [%] | Compound
11 | 46 | 20 | – | – | – | – | C[C@H](Nc1ncnc2[nH]ccc(=O)c12)c1c(Cl)c2cccc(-c3ccc(OCc4ccccc4)nc3)c2c(=O)n1-c1ccccc1 [Example 164, (S)-4-((1-(8-(6-(benzyloxy)pyridin-3-yl)-4-chloro-1-oxo-2-phenyl-1,2-dihydroisoquinolin-3-yl)ethyl)amino)pyrido[2,3-d]pyrimidin-5(8H)-one]
12 | 10 | 27 | – | – | – | – | C[C@H](Nc1ncnc2[nH]ccc(=O)c12)c1c(Cl)c2cccc(C3=NC(C)(C)CO3)c2c(=O)n1-c1ccccc1 [Example 289, (S)-4-((1-(4-chloro-8-(4,4-dimethyl-4,5-dihydrooxazol-2-yl)-1-oxo-2-phenyl-1,2-dihydroisoquinolin-3-yl)ethyl)amino)pyrido[2,3-d]pyrimidin-5(8H)-one]
13 | 71 | 46 | – | – | – | – | C[C@H](Nc1ncnc2[nH]ccc(=O)c12)c1c(Cl)c2ccccc2c(=O)n1-c1ccccc1 [Example 38, (S)-4-((1-(4-chloro-1-oxo-2-phenyl-1,2-dihydroisoquinolin-3-yl)ethyl)amino)pyrido[2,3-d]pyrimidin-5(8H)-one]
14 | 39 | 18 | 89 | 62 | – | – | C[C@H](Nc1ncnc2[nH]ccc(=O)c12)c1c(Cl)c2cccc(C#Cc3ccc(C(F)(F)F)cc3)c2c(=O)n1-c1ccccc1 [Example 315, (S)-4-((1-(4-chloro-1-oxo-2-phenyl-8-((4-(trifluoromethyl)phenyl)ethynyl)-1,2-dihydroisoquinolin-3-yl)ethyl)amino)-5-oxo-5,8-dihydropyrido[2,3-d]pyrimidin-5(8H)-one, 2,2,2-trifluoroacetate]
15 | 82 | 17 | 104 | 54 | – | – | COc1cc(-c2cccc3cc([C@H](C)Nc4ncnc5[nH]ccc(=O)c45)n(-c4ccccc4)c(=O)c23)ccc1Cl [Example 100, (S)-4-((1-(8-(4-chloro-3-methoxyphenyl)-1-oxo-2-phenyl-1,2-dihydroisoquinolin-3-yl)ethyl)amino)pyrido[2,3-d]pyrimidin-5(8H)-one]
16 | 69 | 11 | 98 | 69 | – | – | C[C@H](Nc1ncnc2[nH]ccc(=O)c12)c1c(Cl)c2cccc(N(C)C)c2c(=O)n1-c1ccccc1 [Example 249, (S)-4-((1-(4-chloro-8-(dimethylamino)-1-oxo-2-phenyl-1,2-dihydroisoquinolin-3-yl)ethyl)amino)pyrido[2,3-d]pyrimidin-5(8H)-one]
17 | 85 | 79 | – | – | – | – | CNc1ccc(-c2cccc3c(Cl)c([C@H](C)Nc4ncnc5[nH]ccc(=O)c45)n(-c4ccccc4)c(=O)c23)cn1 [Example 246, (S)-4-((1-(4-chloro-8-(6-(methylamino)pyridin-3-yl)-1-oxo-2-phenyl-1,2-dihydroisoquinolin-3-yl)ethyl)amino)pyrido[2,3-d]pyrimidin-5(8H)-one]
18 | 69 | 48 | – | – | – | – | C[C@H](Nc1ncnc2[nH]ccc(=O)c12)c1c(Cl)c2cccc(-c3ccc(OCC(F)(F)F)nc3)c2c(=O)n1-c1ccccc1 [Example 147, (S)-4-((1-(4-chloro-1-oxo-2-phenyl-8-(6-(2,2,2-trifluoroethoxy)pyridin-3-yl)-1,2-dihydroisoquinolin-3-yl)ethyl)amino)pyrido[2,3-d]pyrimidin-5(8H)-one]
19 | 68 | 34 | – | – | – | – | C[C@H](Nc1ncnc2[nH]ccc(=O)c12)c1c(Cl)c2cccc(-c3ccc(OC(F)(F)F)nc3)c2c(=O)n1-c1ccccc1 [Example 223, (S)-4-((1-(4-chloro-1-oxo-2-phenyl-8-(6-(trifluoromethoxy)pyridin-3-yl)-1,2-dihydroisoquinolin-3-yl)ethyl)amino)pyrido[2,3-d]pyrimidin-5(8H)-one]
20 | 59 | 31 | – | – | – | – | C[C@H](Nc1ncnc2[nH]ccc(=O)c12)c1c(Cl)c2cccc(-c3ccc(N4CCCCC4)nc3)c2c(=O)n1-c1ccccc1 [Example 194, (S)-4-((1-(4-chloro-1-oxo-2-phenyl-8-(6-(piperidin-1-yl)pyridin-3-yl)-1,2-dihydroisoquinolin-3-yl)ethyl)amino)pyrido[2,3-d]pyrimidin-5(8H)-one]
21 | 24 | 56 | – | – | – | – | C[C@H](Nc1ncnc2[nH]ccc(=O)c12)c1c(Cl)c2cccc(NC(=O)C(C)(C)C)c2c(=O)n1-c1ccccc1 [Example 295, (S)—N-(4-chloro-1-oxo-3-(1-((5-oxo-5,8-dihydropyrido[2,3-d]pyrimidin-4-yl)amino)ethyl)-2-phenyl-1,2-dihydroisoquinolin-8-yl) pivalamide]
